One data set relates to 5×FAD mice. As to the kind of experiment: Novel Object Recognition Test (NORT) in 5×FAD mouse model of Alzheimer disease. Format: in vivo. The settings on record: 5×FAD model, 5 mg/kg, treated vs control groups. An excerpt:
5×FAD (tg6799) is an early-onset mouse transgenic model which overexpress mutant human APP(695) with the Swedish (K670N, M671L), Florida (I716V) and London (V717I) Familial Alzheimer's Disease (FAD) mutations along with human PS1 harbouring two FAD mutations (M146L and L286V). The Tg6799 line used is the original hybrid B6SJL background, and this hybrid B6SJL strain is used as a control of healthy animals. The mouse Thy1 promoter regulates both transgenes to drive overexpression in the brain. […]
The test compound was dissolved in 1.8% hydroxypropyl-beta-cyclodextrin and concentration in water was calculated according to the weekly animal consumption to reach the precise daily dose. […] The amount of water that the animals drink was monitored weekly, by the cage, and drug concentration was adjusted every week to reach the precise dose. […]
Mice were placed in a 90°, two-arm, 25-cm-long, 20-cm-high, 5-cm-wide black maze. […] During this second trial, objects A and B were placed in the maze and the behaviour of the mice was recorded with a camera. The time that the mice explored the New object (TN) and Time that the mice explored the Old object […] (TO) were measured. […]

A further data set has as its system human primary astrocytes. As to the kind of experiment: T/I/C-induced reactive astrocyte conversion, qPCR and Western blotting. It is filed as cell-based. On the procedure:
To validate the inhibition efficacy of sEH, 10^6 astrocytes isolated from CD1 mouse brain (Sciencell #M1800) or primary human astrocyte (Sciencell #1800) were seeded onto 6 well culture plates in astrocyte medium (Sciencell #1831 or #1801).
Total RNAs were isolated from microglia or astrocyte using a Quick-RNA kit (Zymo Research, Inc., Irvine, CA, USA). The concentration of total RNAs was measured using a UV-Vis spectrophotometer (NanoDrop8000, Thermo Fisher Scientific Inc., Wilmington, DE, USA) and reverse-transcribed with a high-capacity cDNA reverse transcription kit (Applied Biosystems, Carlsbad, CA, USA). Gene expression was quantified by Fast SYBR green real-time PCR on a Quantstudio 5 system (Applied Biosystems). The primer sequences are listed below (Table 8). Data were analyzed according to the comparative Ct method. Glyceraldehyde 3-phosphate dehydrogenase (Gapdh) was used to normalize the amounts of cDNA within each sample.
Proteins were extracted from microglia or astrocyte by RIPA buffer (Thermo Fisher Scientific Inc.). Extracted proteins were separated by SDS/PAGE and subsequently transferred to nitrocellulose membranes (Bio-Rad, Hercules, CA, USA). […] Membranes visualized on Odyssey (LI-COR Biosciences, NE, USA).

In a further data set the test system is CD1 mice. As to the kind of experiment: Seizure assay (pentylenetetrazole, PTZ test). Format: in vivo, mouse. As to the method:
Test compounds were dissolved in 20% hydroxypropyl-beta-cyclodextrin and concentration was calculated according to the animal weigh to reach the precise dose. Animals were housed in standard care facilities with a 12 hours light-dark cycle with free access to water and food.
To investigate the ability of compounds to cross the blood-brain barrier (BBB), a standard acute test involving the administration of pro-convulsant pentylenetetrazole (PTZ) was employed [Inceoglu et al, PLoS ONE, 2013, 8(12), e80922; WO 2015/148954 A1]. In the test, PTZ was administered at 85 mg/Kg by subcutaneous route, time to onset of first clonic seizure, average of clonic seizures, tonic seizure latency and lethality were monitored for 30 min. Vehicles or compounds were administered by gavage at 5 mg/kg 1 h prior to pro-convulsant.

Another data set has as its system SH-SY5Y cells. The note with it: 100 μM, 24 h. As to the method:
50 ul of Cell titer Glo reagent was added to each well and incubated for 10 min.

Setting [1] is: 5 mg/kg by gavage 1 h prior to PTZ 85 mg/Kg s.c., monitored 30 min.

Each structure is given as a SMILES string. Marks after values point to notes of the source that are not given here.

The values that follow come from patent US20240182406A1, “COMPOUNDS AS SOLUBLE EPOXIDE HYDROLASE INHIBITORS” (UNIVERSITAT DE BARCELONA, priority 2021, published 2024).

Turning to `O=C(NC12CC3CC(Cl)(CC(C1)c1ccccc13)C2)N[C@H]1CC[C@H](Oc2ccc(C(=O)O)cc2)CC1` [Example 2, 4-[((1r,4r)-4-(3-(9-chloro-5,6,8,9,10,11-hexahydro-7H-5,9:7,11-dimethanobenzo[9]annulen-7-yl)ureido)cyclohexyl)oxy]benzoic acid], the “memory deficits by NORT” value in the data set on 5×FAD mice is on record as “reduced memory deficits”. For the same molecule, in the data set with human primary astrocytes (T/I/C 24 h, qPCR), the “induction of inflammatory mediators Nos and Cox2 mRNA” value is recorded as “prevented the induction”; the “mRNA levels of reactive astrocyte markers Cxcl10 and C3” value is recorded as “significantly reduced”. In addition, in the data set on human primary astrocytes (T/I/C-induced reactive astrocyte, 30 μM (FIG. 5f)), the “protein levels of C3 and phosphor-p38” value is reported as “decreased”. For the same molecule, in the data set on CD1 mice (setting [1]), the Average clonic seizure is 1.25, the “Mean time to clonic seizure latency” value worked out at 1006.5 s and the “Protected from tonic/total (Mortality)” value is reported as 6/6****. For the same molecule, in the data set with CD1 mice (5 mg/kg by gavage 1 h prior to PTZ 85 mg/Kg s.c., animals without tonic seizure within 30 min excluded), the “Mean time to tonic seizure” value was 0.00 s. Moreover, in the data set with CD1 mice (5 mg/kg by gavage 1 h prior to PTZ 85 mg/Kg s.c., animals without tonic seizure within 30 min excluded, listed as compound of Example 2), the “Mean time to tonic seizure in seconds” value was “delay onset of tonic seizures”. The “protection from convulsions and associated lethality” value with CD1 mice (PTZ test, 5 mg/kg by gavage) was “protect mice from convulsions and associated lethality”. Besides, the “neuronal cell toxicity (viability)” value in the data set with SH-SY5Y cells is on record as “did not show any neuronal cell toxicity”.
